Laboratory results as given in PubChem BioAssay AID2060901 (Molecular Pharmacology Branch, DTP, NCI, 2025).

Tested on: 422866-222-R5-J1-PDC complex spheroids viability
Experiment: Anticancer human tumor 422866-222-R5-J1-PDC patient-derived pancreatic adenocarcinoma cell line growth inhibition [RAS]
Settings: for IC50: curve of first compound; for viability, T/C: stronger effect = lower value; active means viability on the fitted dose curve at most 10% of control; inactive means the rest
Method in brief: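 Multi-cell-type spheroids: tumor cells plus HUVEC endothelial cells and mesenchymal stem cells. RAS-pathway inhibitors were combined with targeted agents, each dosed in half-log steps down from clinical Cmax, or from 10 microM when Cmax was unknown.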

[1] = second compound 0.0316 µM, first compound 0.0316 µM
[2] = second compound 0.0316 µM, first compound 0.1 µM
[3] = second compound 0.0316 µM, first compound 0.316 µM
[4] = second compound 0.0316 µM, first compound 1 µM
[5] = second compound 0.0316 µM, first compound 3.16 µM
[6] = second compound 0.0316 µM, first compound 10 µM
[7] = second compound 0.1 µM, first compound 0.0316 µM
[8] = second compound 0.1 µM, first compound 0.1 µM
[9] = second compound 0.1 µM, first compound 0.316 µM
[10] = second compound 0.1 µM, first compound 1 µM
[11] = second compound 0.1 µM, first compound 3.16 µM
[12] = second compound 0.1 µM, first compound 10 µM
[13] = second compound 0.316 µM, first compound 0.0316 µM
[14] = second compound 0.316 µM, first compound 0.1 µM
[15] = second compound 0.316 µM, first compound 0.316 µM
[16] = second compound 0.316 µM, first compound 1 µM
[17] = second compound 0.316 µM, first compound 3.16 µM
[18] = second compound 0.316 µM, first compound 10 µM
[19] = second compound 1 µM, first compound 0.0316 µM
[20] = second compound 1 µM, first compound 0.1 µM
[21] = second compound 1 µM, first compound 0.316 µM
[22] = second compound 1 µM, first compound 1 µM
[23] = second compound 1 µM, first compound 3.16 µM
[24] = second compound 1 µM, first compound 10 µM
[25] = second compound 3.16 µM, first compound 0.0316 µM
[26] = second compound 3.16 µM, first compound 0.1 µM
[27] = second compound 3.16 µM, first compound 0.316 µM
[28] = second compound 3.16 µM, first compound 1 µM
[29] = second compound 3.16 µM, first compound 3.16 µM
[30] = second compound 3.16 µM, first compound 10 µM
[31] = second compound 10 µM, first compound 0.0316 µM
[32] = second compound 10 µM, first compound 0.1 µM
[33] = second compound 10 µM, first compound 0.316 µM
[34] = second compound 10 µM, first compound 1 µM
[35] = second compound 10 µM, first compound 3.16 µM
[36] = second compound 10 µM, first compound 10 µM
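Further: spheroids exposed to compounds for 7 days.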
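Wherever viability, T/C is given: 100% = DMSO vehicle control viability.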

CCC(CC)c1cc(NC2CCC(N)C2)n2nccc2n1 (stereo unspecified) + CCn1c(-c2cccnc2C(C)OC)c2c3cc(ccc31)N1CCOC(CC(NC(=O)C(C(C)C)N(C)C(=O)C3(F)CCN(C(=O)C#CC(C)(C)N(C)C)CC3)C(=O)N3CCCC(N3)C(=O)OCC(C)(C)C2)C1
inactive: viability, T/C (second compound 0.000949 µM, first compound 0.0316 µM) 28.4% | viability, T/C (second compound 0.000949 µM, first compound 0.1 µM) 27.2% | viability, T/C (second compound 0.000949 µM, first compound 0.316 µM) 29.5% | viability, T/C (second compound 0.000949 µM, first compound 1 µM) 32.3% | viability, T/C (second compound 0.000949 µM, first compound 3.16 µM) 13.3% | viability, T/C (second compound 0.000949 µM, first compound 10 µM) 46.4% | viability, T/C (second compound 0.003 µM, first compound 0.0316 µM) 27.7% | viability, T/C (second compound 0.003 µM, first compound 0.1 µM) 22.5% | viability, T/C (second compound 0.003 µM, first compound 0.316 µM) 28.1% | viability, T/C (second compound 0.003 µM, first compound 1 µM) 28.2% | viability, T/C (second compound 0.003 µM, first compound 3.16 µM) 12.1% | viability, T/C (second compound 0.003 µM, first compound 10 µM) 44.5% | viability, T/C (second compound 0.00949 µM, first compound 0.0316 µM) 23.8% | viability, T/C (second compound 0.00949 µM, first compound 0.1 µM) 24.4% | viability, T/C (second compound 0.00949 µM, first compound 0.316 µM) 23.8% | viability, T/C (second compound 0.00949 µM, first compound 1 µM) 29.6% | viability, T/C (second compound 0.00949 µM, first compound 3.16 µM) 14.5% | viability, T/C (second compound 0.00949 µM, first compound 10 µM) 43.7% | viability, T/C (second compound 0.03 µM, first compound 0.0316 µM) 21.2% | viability, T/C (second compound 0.03 µM, first compound 0.1 µM) 22.1% | viability, T/C (second compound 0.03 µM, first compound 0.316 µM) 22.8% | viability, T/C (second compound 0.03 µM, first compound 1 µM) 25.4% | viability, T/C (second compound 0.03 µM, first compound 3.16 µM) 12% | viability, T/C (second compound 0.03 µM, first compound 10 µM) 42% | viability, T/C (second compound 0.0949 µM, first compound 0.0316 µM) 20.7% | viability, T/C (second compound 0.0949 µM, first compound 0.1 µM) 15.8% | viability, T/C (second compound 0.0949 µM, first compound 0.316 µM) 22.4% | viability, T/C (second compound 0.0949 µM, first compound 1 µM) 24.5% | viability, T/C (second compound 0.0949 µM, first compound 3.16 µM) 11.7% | viability, T/C (second compound 0.0949 µM, first compound 10 µM) 45.5% | viability, T/C (second compound 0.3 µM, first compound 0.0316 µM) 15.6% | viability, T/C (second compound 0.3 µM, first compound 0.1 µM) 20.1% | viability, T/C (second compound 0.3 µM, first compound 0.316 µM) 20.7% | viability, T/C (second compound 0.3 µM, first compound 1 µM) 24.1% | viability, T/C (second compound 0.3 µM, first compound 3.16 µM) 12.5% | viability, T/C (second compound 0.3 µM, first compound 10 µM) 48.7%
< 31.6 nM: IC50 (second compound 0.000949 µM) | IC50 (second compound 0.003 µM) | IC50 (second compound 0.00949 µM) | IC50 (second compound 0.03 µM) | IC50 (second compound 0.0949 µM) | IC50 (second compound 0.3 µM)

NC1c2ccccc2OC12CCN(c1cnc3c(N4CCCc5ncccc54)n[nH]c3n1)CC2 (stereo unspecified) + C#Cc1c(F)ccc2cc(O)cc(-c3ncc4c(N5CC6CCC(C5)N6)nc(OCC56CCCN5CC(F)C6)nc4c3F)c12
< 31.6 nM: IC50 (second compound 0.1 µM) | IC50 (second compound 0.316 µM) | IC50 (second compound 1 µM) | IC50 (second compound 3.16 µM) | IC50 (second compound 10 µM)
inactive: viability, T/C [1] 53% | viability, T/C [2] 49.2% | viability, T/C [3] 34.8% | viability, T/C [4] 38.4% | viability, T/C [5] 29.5% | viability, T/C [6] 23.6% | viability, T/C [7] 44% | viability, T/C [8] 43.3% | viability, T/C [9] 32.8% | viability, T/C [10] 28.7% | viability, T/C [11] 27.7% | viability, T/C [12] 25.5% | viability, T/C [13] 38.1% | viability, T/C [14] 36.2% | viability, T/C [15] 24.1% | viability, T/C [16] 26.4% | viability, T/C [17] 24.2% | viability, T/C [18] 19.7% | viability, T/C [19] 27.1% | viability, T/C [20] 23.9% | viability, T/C [21] 25.2% | viability, T/C [22] 17% | viability, T/C [23] 19.6% | viability, T/C [24] 15% | viability, T/C [25] 17.8% | viability, T/C [26] 19.8% | viability, T/C [27] 16.1% | viability, T/C [28] 17.4% | viability, T/C [29] 17.5% | viability, T/C [30] 14.9% | viability, T/C [31] 15.7% | viability, T/C [32] 16.5% | viability, T/C [33] 14.3% | viability, T/C [34] 16.2% | viability, T/C [35] 15.6% | viability, T/C [36] 16.1%
55.8 nM: IC50 (second compound 0.0316 µM)

CC(Nc1ccc2c(c1)OCCn1cc(N3C(=O)OCC3C(F)F)nc1-2)C(N)=O (stereo unspecified) + C#Cc1c(F)ccc2cc(O)cc(-c3ncc4c(N5CC6CCC(C5)N6)nc(OCC56CCCN5CC(F)C6)nc4c3F)c12
93.5 nM: IC50 (second compound 0.0316 µM)
active: viability, T/C [29] 9.41% | viability, T/C [30] 9.38% | viability, T/C [33] 8.74% | viability, T/C [34] 6.04% | viability, T/C [35] 7.1% | viability, T/C [36] 7.04%
81.5 nM: IC50 (second compound 0.1 µM)
33.4 nM: IC50 (second compound 0.316 µM)
inactive: viability, T/C [1] 77% | viability, T/C [2] 46.7% | viability, T/C [3] 33.1% | viability, T/C [4] 37.9% | viability, T/C [5] 26.1% | viability, T/C [6] 22.2% | viability, T/C [7] 73.3% | viability, T/C [8] 44.8% | viability, T/C [9] 30.9% | viability, T/C [10] 24.7% | viability, T/C [11] 23% | viability, T/C [12] 19.9% | viability, T/C [13] 50.6% | viability, T/C [14] 38.6% | viability, T/C [15] 29.8% | viability, T/C [16] 21.6% | viability, T/C [17] 19% | viability, T/C [18] 18.7% | viability, T/C [19] 37.3% | viability, T/C [20] 26.5% | viability, T/C [21] 22.5% | viability, T/C [22] 14.5% | viability, T/C [23] 13.6% | viability, T/C [24] 12.7% | viability, T/C [25] 22.2% | viability, T/C [26] 19.2% | viability, T/C [27] 13% | viability, T/C [28] 10.5% | viability, T/C [31] 13.7% | viability, T/C [32] 11.8%
< 31.6 nM: IC50 (second compound 1 µM) | IC50 (second compound 3.16 µM) | IC50 (second compound 10 µM)
